Here are results for 9 compounds from patent publication US7342014B2, “Diamine derivatives” (Daiichi Pharmaceutical Co., Ltd., priority 2001, dated 2008).

The term IC50 denotes the concentration needed to halve the response being measured.

Counter-ions that a name gives are not always drawn.

T1 sequence (P00742 235-488 limits assumed): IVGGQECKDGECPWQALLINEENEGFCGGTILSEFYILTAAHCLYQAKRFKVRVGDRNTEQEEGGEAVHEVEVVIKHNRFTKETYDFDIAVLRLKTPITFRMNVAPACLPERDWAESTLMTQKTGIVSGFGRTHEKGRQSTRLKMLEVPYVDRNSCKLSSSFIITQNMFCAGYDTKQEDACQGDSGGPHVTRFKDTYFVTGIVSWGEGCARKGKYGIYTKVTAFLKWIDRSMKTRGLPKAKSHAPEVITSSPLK
T1 sequence (P00742 41-179 partner limits assumed): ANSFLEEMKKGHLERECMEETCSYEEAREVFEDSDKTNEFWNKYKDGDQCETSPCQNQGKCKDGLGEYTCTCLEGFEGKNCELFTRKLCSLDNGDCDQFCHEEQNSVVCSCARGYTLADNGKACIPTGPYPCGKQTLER

The test has as its target T1, human FXa (Homo sapiens, UniProt P00742).
T1 construct: purchased Enzyme Research Labolatories, Inc
Kind of test: Determination of human FXa-inhibiting effect (IC50 value). Particulars: human FXa, substrate S-2222, absorbance at 405 nm, room temperature; read-out: Human FXa-inhibiting effect (IC50). In kind it is biochemical. From the text:
Determination of Human FXa-inhibiting Effect (IC50 Value)
As a control, Tris buffer was used in place of the test compound.
As to `CN1CCc2nc(C(=O)N[C@@H]3CCCC[C@@H]3NC(=O)c3ccc4cc(Cl)ccc4c3)sc2C1` (relative stereo) [Example 7, N-{(1R*,2S*)-2-[(6-Chloronaphthoyl)amino]cyclohexyl}-5-methyl-4,5,6,7-tetrahydrothiazolo[5,4-c]pyridine-2-carboxamide hydrochloride], the IC50 is 83 nM. As for `CN1CCc2nc(C(=O)N[C@@H]3CCCC[C@@H]3NC(=O)c3cc4cc(Br)ccc4[nH]3)sc2C1` (relative stereo) [Example 11, N-((1R*,2S*)-2-{[(5-Bromoindol-2-yl)carbonyl]amino}-cyclohexyl)-5-methyl-4,5,6,7-tetrahydrothiazolo[5,4-c]-pyridine-2-carboxamide hydrochloride], the figure is 92 nM.

On to `CCOC(=O)N1CC[C@H](NC(=O)c2cc3cc(Cl)ccc3[nH]2)[C@H](NC(=O)c2nc3c(s2)CN(C)CC3)C1` (relative stereo) [Example 130, Ethyl (3R*,4S*)-4-{[(5-chloroindol-2-yl)carbonyl]amino}-3-{[(5-methyl-4,5,6,7-tetrahydrothiazolo[5,4-c]pyridin-2-yl)carbonyl]amino}piperidine-1-carboxylate hydrochloride], for which the half-maximal inhibitory concentration (IC50) was found to be 4.5 nM. On to `CN1CCc2nc(C(=O)N[C@@H]3CN(C(=O)C4CC4)CC[C@@H]3NC(=O)c3cc4cc(Cl)ccc4[nH]3)sc2C1` (relative stereo) [Example 138, N-[(3R*,4S*)-4-{[(5-Chloroindol-2-yl)carbonyl]amino}-1-(cyclopropylcarbonyl)piperidin-3-yl]-5-methyl-4,5,6,7-tetrahydrothiazolo[5,4-c]pyridine-2-carboxamide hydrochloride], for which the 50% inhibitory concentration (IC50) was 4.4 nM. The figure for `COCC(=O)N1CC[C@H](NC(=O)c2cc3cc(Cl)ccc3[nH]2)[C@H](NC(=O)c2nc3c(s2)CN(C)CC3)C1` (relative stereo) [Example 143, N-[(3R*,4S*)-4-{[(5-Chloroindol-2-yl)carbonyl]amino}-1-(2-methoxyacetyl)piperidin-3-yl]-5-methyl-4,5,6,7-tetrahydro-thiazolo[5,4-c]pyridine-2-carboxamide hydrochloride] is 5.8 nM; for `CN1CCc2nc(C(=O)N[C@@H]3C[C@@H](C(=O)N(C)C)CC[C@@H]3NC(=S)C(=O)Nc3ccc(Cl)cc3)sc2C1` [Ex. 246, N-{(1R,2S,5S)-2-{[2-(4-Chloroanilino)-2-oxoethane-thioyl]amino}-5-[(dimethylamino)carbonyl]cyclohexyl}-5-methyl-4,5,6,7-tetrahydrothiazolo[5,4-c]pyridine-2-carboxamide] it is 3.1 nM. As for `CN1CCc2nc(C(=O)N[C@@H]3C[C@@H](C(=O)N(C)C)CC[C@@H]3NC(=S)C(=O)Nc3ccc(Cl)cn3)sc2C1` [Ex. 247, N-{(1R,2S,5S)-2-({2-[(5-Chloropyridin-2-yl)amino]-2-oxoethanethioyl}amino)-5-[(dimethylamino)carbonyl]-cyclohexyl}-5-methyl-4,5,6,7-tetrahydrothiazolo[5,4-c]-pyridine-2-carboxamide], the figure is 1.9 nM; as for `CN1CCc2nc(C(=O)N[C@@H]3C[C@@H](C(=O)N(C)C)CC[C@@H]3NC(=O)C(=S)Nc3ccc(Cl)cn3)sc2C1` [Ex. 248, N-{(1R,2S,5S)-2-({2-[(5-Chloropyridin-2-yl)amino]-2-thioxoacetyl}amino)-5-[(dimethylamino)carbonyl]-cyclohexyl}-5-methyl-4,5,6,7-tetrahydrothiazolo[5,4-c]-pyridine-2-carboxamide], 5.4 nM; as for `COC(=O)[C@@H]1CC[C@H](NC(=O)c2cc3cc(Cl)ccc3[nH]2)[C@H](NC(=O)c2nc3c(s2)CN(C)CC3)C1` [Example 54, Methyl (1R,3R,4S)-4-{[(5-chloroindol-2-yl)carbonyl]amino}-3-{[(5-methyl-4,5,6,7-tetrahydrothiazolo[5,4-c]pyridin-2-yl)carbonyl]amino}cyclohexanecarboxylate], 4.2 nM.
